Laboratory results as given in patent publication US8993626B2, “Methods of treatment using sterculic acid” (The United States of America, as represented by the …, priority 2010, dated 2015).
Where two headings read alike, the source gives them in different places.

Legend:
HUVEC = HUVEC growth inhibition assay (crystal violet); type: cell-based; conditions: for IC50: Homo sapiens
Method: HUVEC (1.5×10^3) are plated in a 96-well plate in […] of EBM-2 (Clonetic #CC3162). After 24 h (day 0), the test compound (100 μL) is added to each well at 2× the desired concentration (5-7 concentration levels) in EBM-2 medium. On day 0, one plate is stained with 0.5% crystal violet in 20% methanol for 10 minutes, rinsed with water, and air-dried. The remaining plates are incubated for 72 h at 37° C. After 72 h, plates are stained with 0.5% crystal violet in 20% methanol, rinsed with water, and air-dried. The stain is eluted with 1:1 solution of ethanol:0.1M sodium citrate (including day 0 plate), and absorbance is measured at 540 nm with an ELISA reader (Dynatech Laboratories). Day 0 absorbance is subtracted from the 72 h plates and data is plotted as percentage of control proliferation (vehicle treated cells). IC50 (drug concentration causing 50% inhibition) is calculated from the plotted data.

Colon Cancer, HCC-2998 = assay: NCI in vitro anti-cancer cell line screen (SRB); conditions: Homo sapiens, HCC 2998, 48 h
Method: (§1) The human tumor cell lines used in the cancer screen panel were grown in RPMI 1640 medium containing 5% FBS and 2 mM L-glutamine. The cells were inoculated into 96-well microtiter plates in 100 μl at plating density ranging from 5000 to 40,000 cell/well. […] Following drug addition, the plates were incubated for an additional 48 h. The assay was terminated by the addition of cold 10% TCA. The supernatant was discarded, and the plates were washed five times with water and air dried. Sulforhodamine B (SRB) solution (100 μl) at 0.4% (w/v) in 1% acetic acid was added to each well, and plates were incubated for 10 min at room temperature. After staining, unbound dye was removed by washing five times with 1% acetic acid and the plates were air dried. Bound stain was subsequently solubilized with 10 mM trizma base, and the absorbance was read on an automated plate reader at a wavelength of 515 nm.
(§2) A sulforhodamine B (SRB) end point was used to calculate the median growth inhibition (GI50). GI50 refers to the concentration at which the drug inhibits tumor cell growth by 50%.

Colon Cancer, SW-620 = assay: NCI in vitro anti-cancer cell line screen (SRB); conditions: Homo sapiens, SW-620, 48 h
Method: as §1, §2

ARPE19 cells [1] = assay: CellTiter-Glo luminescent cell viability assay, 15 μM 7KCh-induced cytotoxicity; type: cell-based, human; conditions: 1 μM + 15 μM 7KCh, 24 hr
Method: Error bar: standard deviation, n=4.
CellTiter-Glo® Luminescent Cell Viability Assay is a homogeneous method of determining the number of viable cells in culture based on quantitation of the ATP (luminescent signal) present, an indicator of metabolically active cells.
The contents in a plate were mixed for 2 min on an orbital shaker to induce cell lysis.
5) The plate was allowed to incubate at room temperature for 10 min to stabilize luminescent signal.

ARPE19 cells [2] = assay: Cell Counting Kit-8 viability assay, 15 μM 7KCh-induced cytotoxicity; conditions: 1 μM fatty acid + 15 μM 7KCh
Method: 4×10^4 cells were seeded onto wells of a 96 well plate. […] Cell viability was determined as celluar dehydrogenase activity and expressed as the percentage of compound treated cells relative to that of untreated controls. error bar: standard deviation, n=4.
The kit allows sensitive colorimetric assays for the determination of the number of viable cells in cell proliferation and cytotoxicity assays. The amount of the formazan dye generated by the activity of dehydrogenases in cells is directly proportional to the number of living cells.
1) Cells were cultivated in a 96 well cell plate (Costar#3599, Corning Incorp, Corning, N.Y.).
2) The cell suspension (40,000 cells/100 μL) were added to 100 μL culture media per well and stood for 15 min at room temperature and cultured at 37° C. in a humidified 5% CO2 atmosphere.
3) Approximately 19 hr after seeding, when the cells were fully confluent, the cells were treated with either DMSO or 1 μM fatty acid in 200 μL of serum free media and subsequently added with 15 μM 7KCh in HPBCD. Then, the plate was swirled for mixing. The cells were also treated with DMSO and HPBCD, which served as vehicle control. The final DMSO and HPBCD concentrations in the media were in the range of 0.1% and 0.0675%, respectively.
Cell viability was expressed as the percentage of compound treated cells relative to that of untreated controls. Prior to measure cell viability, the cells were imaged live by Nikon TE 2000-U inverted fluorescent microscope.

Leukemia, HL-60 (TB) = assay: NCI in vitro anti-cancer cell line screen (SRB); type: cell-based; conditions: Homo sapiens, 48 h
ARPE19 cells [3] = assay: Phase-contrast images of cells after co-treatment with 15 μM 7KCh; type: cell-based, human; conditions: 1 μM fatty acid + 15 μM 7KCh, 24 hr
Description: FIG. 8 depicts phase-contrast images of ARPE19 cells at 24 hr after sterculic acid co-treatment with 7KCh.

In the case of CCCCCCCCC1=C(CCCCCCCC(=O)O)C1 [sterculic acid, 8-(2-octacyclopropen-1-yl)octanoic acid], the apoptosis induction (HUVEC; HUVEC) is reported as “no apoptosis”, the IC50 (HUVEC; HUVEC, 72 h, read-out: IC50 value of the anti-proliferative effect) is reported as ~11.7 µM and the IC50 (HUVEC; HUVEC proliferation, read-out: IC50 (drug concentration causing 50% inhibition)) is reported as 18.6 µM. The GI50 (Colon Cancer, HCC-2998) was 10 µM, the GI50 (Colon Cancer, SW-620) was 1000 nM and the “cell viability relative to the level of untreated control (ATP level)” value (ARPE19 cells [1]) was 80%. For the same compound, the “protective effect against cytotoxicity by 7KCh (summary of the viability assays)” value (ARPE19 cells [2]) was “greatest protective effect”, the GI50 (Leukemia, HL-60 (TB)) was 10 µM and the “cell morphological changes compared to 7KCh alone” value (ARPE19 cells [3]) was “much less proportion of dead cell and cell debris”.
